Measurements: patent US20240382516A1, “PHARMACEUTICAL COMPOSITION FOR INCREASING MITOCHONDRIAL ACTIVITY AND/OR IMPROVING ADIPONECTIN PRODUCTION” (LOGICK ENERGETICS B.V., priority 2021, published 2024)

Tests used:
Assay type in all cases: cell-based
[1] = tested on: Adiponectin gene expression in 3T3-L1 cells; test: qPCR adiponectin gene expression in 3T3-L1 cells; conditions: 72 hours incubation, A 5.0 μg/ml, B 50 μM, C 1.0 μM
Experimental: • DMEM • 10% heat inactivated FCS • Compound A—5.0 μg/ml • Compound B-50 μM • Compound C-1.0 μM • Compound A+B • Compound A+C Protocol 3T3-L1 cell line • DMEM • 10% heat inactivated FCS • Compound A-[…] • Compound B-50 μM • Compound C-1.0 μM • Compound A+B • Compound A+C
In the of presence of: • 0.25 μM Dexamethasone & • 1 μg/ml Insulin • Therein A=pentosan, B=indomethacin, and C=pioglitazone.
Cells were stimulated at day 4 when they were sub confluent. After 72 hours of incubation, RNA was isolated from the cells.

Ppargc1a = Ppargc1a log2Foldchanges, RNA isolated from stimulated KS-cells; conditions: for effect on changes in Ppargc1a activity (in words): 3 and 7 days stimulation
Description: Therein A=pentosan, B-indomethacin, and C=pioglitazone. The RNA is isolated after 3 and 7 days stimulation in KS-cells, respectively. Ppargcla is considered particularly relevant for mitochondrial activity. A higher value represents a higher activity.

[2] = tested on: Cox family of sub-unit proteins of mitochondrial complex 4; test: Gene expression Log2fold change, Cox family, KS483 cells; conditions: 7 days of stimulation
[3] = tested on: Nduf family of sub-unit proteins of mitochondrial complex 1; test: Gene expression Log2fold change, Nduf family, KS483 cells; conditions: 7 days of stimulation

Compound	COX4iL Log2fold change [2]	COX5a Log2fold change [2]	COX5b Log2fold change [2]	COX6b1 Log2fold change [2]	COX7a2L Log2fold change [2]	COX8a Log2fold change [2]	COX15 Log2fold change [2]	COX17 Log2fold change [2]	COX19 Log2fold change [2]	COX20 Log2fold change [2]	Nduf4 0 Log2fold change [3]	Ndufa5 Log2fold change [3]	Ndufa9 Log2fold change [3]	Ndufa10 Log2fold change [3]	Ndufab1 Log2fold change [3]	Ndufaf7 Log2fold change [3]	Ndufb3 Log2fold change [3]	Ndufb4 Log2fold change [3]	Ndufb9 Log2fold change [3]	Ndufb10 Log2fold change [3]	further results
COc1ccc2c(c1)c(CC(=O)O)c(C)n2C(=O)c1ccc(Cl)cc1 [Compound B, indomethacin]	0	0	0	0	0	0	0	0	0	0	0	0	0	0	0	0	0	0	0	0	effect on Adiponectin gene expression (FIG. 1) [1]: show adiponectin gene expression; effect on changes in Ppargc1a activity (in words) (Ppargc1a): no measurable effect; Ndufc1 Log2fold change [3]: 0; Ndufs10 Log2fold change [3]: 0; Ndufs20 Log2fold change [3]: 0; Ndufv1 Log2fold change [3]: 0; Ndufv3 Log2fold change [3]: 0
CCc1ccc(CCOc2ccc(CC3SC(=O)NC3=O)cc2)nc1 (stereo not drawn) [Compound C, pioglitazone]	0	0	0	0	0	0	0	0	0	0	0	0.57	0	0	0	0.35	0	0	0	0	Ndufc1 Log2fold change [3]: 0; Ndufs10 Log2fold change [3]: 0; Ndufs20 Log2fold change [3]: 0; Ndufv1 Log2fold change [3]: 0; Ndufv3 Log2fold change [3]: 0
pentosan polysulphate [Compound A]	0	0.31	0	0	−0.42	0	0	0	0	0	0	0	0	0	0	0	0	0	0	0	effect on Adiponectin gene expression (FIG. 1) [1]: hardly any effect; effect on changes in Ppargc1a activity (in words) (Ppargc1a): some effect; Ppargc1a log2Foldchanges (Ppargc1a; 3 days stimulation): 1.14; Ppargc1a log2Foldchanges (Ppargc1a; 7 days stimulation): 1.3; Ndufc1 Log2fold change [3]: 0; Ndufs10 Log2fold change [3]: 0; Ndufs20 Log2fold change [3]: 0; Ndufv1 Log2fold change [3]: 0; Ndufv3 Log2fold change [3]: 0
